Measured values published in patent publication US12059400B2, “Medical compound” (VERA SALUS RICERCA S.R.L., priority 2017, dated 2024).

Columns and labels:
[1] = test system: human skin fibroblasts (WS1); test: Cell proliferation of normal cells, crystal violet method; assay type: cell-based; details: at the indicated concentrations (not given); FIG. 17
Procedure: The compound according to the invention, and in particular the synthetic quercetin derivatives described and illustrated herein were investigated in vitro by using human tumour cells and assessing their impact on the tumour proliferative capacity, with regard to the tumours described above. In particular, the following human tumour cell lines were assessed experimentally: 1) HCT116, colon adenocarcinoma cells; 2) H1299, lung adenocarcinoma cells; 3) A375, melanoma cells, and 4) A431, squamous skin cell carcinoma; 5) 786-0, renal carcinoma cells; 6) PC3, prostate carcinoma cells; 7) BT549, mammary carcinoma cells; 8) CAL27, tongue carcinoma cells (belonging to the head-and-neck carcinomas); 9) HepG2, hepatocellular carcinoma cells; 10) PANC-1, pancreas carcinoma cells; 11) T24, bladder carcinoma cells; 12) OVCAR-3, ovarian carcinoma cells. In addition, a normal human cell line, WS1 (skin fibroblasts) was also treated with the novel synthetic compounds. Cell proliferation was quantified by the crystal violet method with a spectrophotometer. In short, after acquiring serial images (0, 24 and 48 hrs) with the EVOS XL Cell Imaging System microscope (Thermo Fisher Scientific), the cells imaged at 48 hrs were fixed with paraformaldehyde (4%) and stained with Crystal Violet (1%). Then, the specific absorbance (λ=590 nm) at 48 hrs was measured with a spectrophotometer (Infinite®200 PRO, Tecan). Data analysis was carried out by using ad-hoc Excel files for graphical representation and statistical processing (t-test). […] This tool allows cell growth to be monitored from electrical impedance-derived quantitative values (the so-called Cell Index) measured by tiny electrodes located at the base of the culture wells. Proliferation is monitored for several days (5-7) by setting a Cell Index per minute measure on the instrument. The data are analysed by processing various parameters calculated by the dedicated software, such as the cell duplication time, the slope and the Max Cell Index.

[2] = test system: human colon carcinoma cells (HCT116); test: Intracellular ROS levels, DCFH2-DA probe; assay type: cell-based; details: 2 hrs of treatment; at the respective anti-proliferative IC50s; DCF fluorescence in A.U.; FIG. 22 left
Procedure: Intracellular ROS levels were measured in tumour cells by using the probe 2,7-dichlorodihydrofluorescein diacetate (DCFH2-DA) and a fluorescence spectrophotometer. DCFH2-DA diffuses readily through the cell membrane into the cytosolic space of the cell where it is hydrolyzed by intracellular esterases into the non-permeable DCFH2 product. DCFH2 oxidation by intracellular ROS (mainly H2O2, HO·, ROO·, NO· and ONOO) results in the production of intracellular fluorescent DCF, whose concentration is directly proportional to the levels of ROS in the cell. […] All the experiments were repeated at least 3 times. Data analysis was carried out with GraphPad Prism 6 for graphical representation and statistical processing (1-way ANOVA test).

[3] = test system: human colon carcinoma cells (HCT116); test: Cell proliferation, crystal violet method; assay type: cell-based
Procedure: (§1) The compound according to the invention, and in particular the synthetic quercetin derivatives described and illustrated herein were investigated in vitro by using human tumour cells and assessing their impact on the tumour proliferative capacity, with regard to the tumours described above. In particular, the following human tumour cell lines were assessed experimentally: 1) HCT116, colon adenocarcinoma cells; 2) H1299, lung adenocarcinoma cells; 3) A375, melanoma cells, and 4) A431, squamous skin cell carcinoma; 5) 786-0, renal carcinoma cells; 6) PC3, prostate carcinoma cells; 7) BT549, mammary carcinoma cells; 8) CAL27, tongue carcinoma cells (belonging to the head-and-neck carcinomas); 9) HepG2, hepatocellular carcinoma cells; 10) PANC-1, pancreas carcinoma cells; 11) T24, bladder carcinoma cells; 12) OVCAR-3, ovarian carcinoma cells. In addition, a normal human cell line, WS1 (skin fibroblasts) was also treated with the novel synthetic compounds.
(§2) Cell proliferation was quantified by the crystal violet method with a spectrophotometer. In short, after acquiring serial images (0, 24 and 48 hrs) with the EVOS XL Cell Imaging System microscope (Thermo Fisher Scientific), the cells imaged at 48 hrs were fixed with paraformaldehyde (4%) and stained with Crystal Violet (1%). Then, the specific absorbance (λ=590 nm) at 48 hrs was measured with a spectrophotometer (Infinite®200 PRO, Tecan). Data analysis was carried out by using ad-hoc Excel files for graphical representation and statistical processing (t-test). Moreover, the results obtained with Crystal Violet were confirmed by using another cell proliferation assessment method based on the real time cellular analyzer XCELLigence RTCA DP (ACEA Biosciences, Inc.). This tool allows cell growth to be monitored from electrical impedance-derived quantitative values (the so-called Cell Index) measured by tiny electrodes located at the base of the culture wells. Proliferation is monitored for several days (5-7) by setting a Cell Index per minute measure on the instrument. The data are analysed by processing various parameters calculated by the dedicated software, such as the cell duplication time, the slope and the Max Cell Index.
(§3) Cell proliferation was quantitated spectrophotometrically by the crystal violet method.

[4] = test system: human melanoma cells (A375); test: Cell proliferation, crystal violet method; assay type: cell-based
Procedure: as §1, §2, §3

[5] = test system: human ovarian carcinoma cells (OVCAR-3); test: Cell proliferation, crystal violet method; assay type: cell-based; details: 60 μM; FIG. 11a, 11b
Procedure: as §1, §2, §3

[6] = test system: SCC cells (A431); test: Cell proliferation, crystal violet method; assay type: cell-based, human; details: 90 μM; FIG. 2a, 2b
Procedure: (§4) The compound according to the invention, and in particular the synthetic quercetin derivatives described and illustrated herein were investigated in vitro by using human tumour cells and assessing their impact on the tumour proliferative capacity, with regard to the tumours described above. In particular, the following human tumour cell lines were assessed experimentally: 1) HCT116, colon adenocarcinoma cells; 2) H1299, lung adenocarcinoma cells; 3) A375, melanoma cells, and 4) A431, squamous skin cell carcinoma; 5) 786-0, renal carcinoma cells; 6) PC3, prostate carcinoma cells; 7) BT549, mammary carcinoma cells; 8) CAL27, tongue carcinoma cells (belonging to the head-and-neck carcinomas); 9) HepG2, hepatocellular carcinoma cells; 10) PANC-1, pancreas carcinoma cells; 11) T24, bladder carcinoma cells; 12) OVCAR-3, ovarian carcinoma cells. In addition, a normal human cell line, WS1 (skin fibroblasts) was also treated with the novel synthetic compounds. Cell proliferation was quantified by the crystal violet method with a spectrophotometer. In short, after acquiring serial images (0, 24 and 48 hrs) with the EVOS XL Cell Imaging System microscope (Thermo Fisher Scientific), the cells imaged at 48 hrs were fixed with paraformaldehyde (4%) and stained with Crystal Violet (1%). Then, the specific absorbance (λ=590 nm) at 48 hrs was measured with a spectrophotometer (Infinite®200 PRO, Tecan). Data analysis was carried out by using ad-hoc Excel files for graphical representation and statistical processing (t-test). Moreover, the results obtained with Crystal Violet were confirmed by using another cell proliferation assessment method based on the real time cellular analyzer XCELLigence RTCA DP (ACEA Biosciences, Inc.). This tool allows cell growth to be monitored from electrical impedance-derived quantitative values (the so-called Cell Index) measured by tiny electrodes located at the base of the culture wells. Proliferation is monitored for several days (5-7) by setting a Cell Index per minute measure on the instrument. The data are analysed by processing various parameters calculated by the dedicated software, such as the cell duplication time, the slope and the Max Cell Index. […] Cell proliferation was quantitated spectrophotometrically by the crystal violet method.

[7] = test system: human renal carcinoma cells (786-0); test: Cell proliferation, crystal violet method; assay type: cell-based; details: 80 μM; FIG. 4a, 4b
Procedure: as §4

[8] = test system: human pancreatic carcinoma cells (PANC-1); test: Cell proliferation, crystal violet method; assay type: cell-based; details: 80 μM; FIG. 9a, 9b
Procedure: as §4

[9] = test system: human bladder carcinoma cells (T24); test: Cell proliferation, crystal violet method; assay type: cell-based; details: 80 μM; FIG. 10a, 10b
Procedure: as §4

[10] = test system: human prostate carcinoma cells (PC3); test: Cell proliferation, crystal violet method; assay type: cell-based; details: 80 μM; FIG. 5a, 5b
Procedure: as §4

[11] = test system: human melanoma cells (A375); test: Cell cycle progression, propidium iodide method, cytofluorimeter; assay type: cell-based; details: 24 hrs; at the respective anti-proliferative IC50s; FIG. 19
Procedure: Progression through the tumour cell cycle was assessed by the propidium iodide method and quantification of the cell DNA content with a cytofluorimeter. Briefly, after treatment (in duplicate) with the test compounds (24 hrs), the tumour cells were washed (with PBS), detached with trypsin-EDTA and pelleted by centrifugation (125 g for 6 min). The cells were then fixed in ethanol (70%) and stored in the freezer (−20° C.) for 1-3 days. After further washing (PBS) and treatment with RNAse (50 ug/ml), the cells were contacted (on ice in the dark; 30 min) with propidium iodide (50 μg/ml). FL2 and FL3 cytofluorimeter readings analysed approximately 50,000 cells (1 μl/second) per sample. Statistical analysis and graphical representation were performed by using t-tests and preset Excel property files.

Compound | proliferation of normal human skin fibroblasts (WS1) vs vehicle control [1] | intracellular ROS levels in HCT116 cells [2] | HCT116 cell growth vs vehicle control ([3]; 10 μM and 30 μM, FIG. 15) | IC50 ([3]; Homo sapiens, HCT-116, crystal violet, spectrophotometer, read-out: IC50 anti-proliferative effect, CRC (HCT116)) | A375 cell growth vs vehicle control ([4]; 10 μM and 30 μM, FIG. 14) | IC50 ([4]; Homo sapiens, A-375, crystal violet, spectrophotometer, read-out: IC50 anti-proliferative effect, Melanoma (A375)) | OVCAR-3 cell growth vs vehicle control [5] | A431 cell growth vs vehicle control [6] | 786-0 cell growth vs vehicle control [7] | PANC-1 cell growth vs vehicle control [8] | T24 cell growth vs vehicle control [9] | PC3 cell growth vs vehicle control [10] | halt of A375 tumour cells in S and/or G2 of the cell cycle [11]
O=c1cc(-c2ccc(O)cc2)oc2cc(O)cc(O)c12 [apigenin] | significantly inhibits | – | – | – | – | – | – | – | – | – | – | – | –
O=C(NCCOCCOc1c(-c2ccc(O)c(O)c2)oc2cc(O)cc(O)c2c1=O)c1ccc(-c2ccc(C(=O)NCCOCCOc3c(-c4ccc(O)c(O)c4)oc4cc(O)cc(O)c4c3=O)cc2)cc1 [Compound 19b] | – | significantly raise | significantly inhibited | 5.51 µM | significantly inhibited | 9.48 µM | – | – | – | – | – | – | –
O=c1c(O)c(-c2ccc(O)c(O)c2)oc2cc(O)cc(O)c12 [quercetin, Quercetin, reference compound] | do not disrupt | has no effect | – | – | – | – | has no effect | has no effect | has no effect | has no effect | has no effect | modest anti-proliferative effects | significantly halt
